According to patent publication US10954214B2 (Janssen Pharmaceutica NV, priority 2016, dated 2021):

Tests used:
[1] = tested on: IL10 secretion by TMD8 ABC-DLBCL cells; assay: Human IL10 Mesoscale assay (TMD-8); assay type: cell-based; conditions: Homo sapiens, TMD8; TMD-8 cells, 24 h
Description: (§1) NFKB signaling regulates the secretion of multiple cytokines, including IL6 and IL10. Secretion of the cytokines IL6 and IL10 by TMD8 or OCI-LY3 ABC-DLBCL cells was measured using a mesoscale assay. Inhibition of NFKB signaling by MALT1 or BTK inhibitors results in a decrease of IL6/10 secretion.
(§2) TMD8 or OCI-LY3 cells were propagated in RPMI-1640 (Sigma Aldrich) supplemented with 10% fetal bovine serum (HyClone), 1 mM sodium pyruvate (Invitrogen), 2 mM L-glutamine (Sigma Aldrich) and 1% PenStrep (Sigma Aldrich). Cell passage number should not exceed 30. Cells should be kept between 0.5-2.5 million cells per mL during culturing and cells should be supplemented every 2-3 days with fresh 50 μM beta-mercaptoenthanol. No beta-mercaptoethanol was used during the mesoscale assay.
(§3) For the Mesoscale assay, 100,000 TMD8 or OCI-LY3 cells were seeded per well into black-colored 96-well plates with clear bottom (Corning #3904) and test compounds were added in 9 dilution steps (1:2) ranging from 15 μM to 58.6 nM (final DMSO concentration 0.3%). DMSO control wells were used to determine the maximum signal (High Control (HC)). Treatment with the BTK inhibitor RN486 in a dose range from 30 nM to 131 pM (9 dilutions of 1:2) served as a positive control for NFKB pathway inhibition and was used to determine the maximum inhibition (Low Control (LC)). Compounds and cells were incubated for 24 h at 37° C. and 5% CO2 (assay volume is 150 μL). After 24 h of incubation 50 μL of the supernatant was transferred to a MSD plate (V-Plex Proinflammation Panel 1 (human) kit, Mesoscale (MSD)) and incubated for 2 h with vigorous shaking (600 rpm) at room temperature. Following incubation, plates were washed 3× with PBS+0.05% Tween-20 and 25 μL detection antibody solution (IL6 & IL10 antibodies in diluent 3 (MSD)) was added per well followed by 2 h of incubation with vigorous shaking (600 rpm) at room temperature. After 3× washes with PBS+0.05% Tween-20, plates were incubated with 150 μL 2× Read Buffer T and read on SECTOR imager.

[2] = tested on: IL6 secretion by TMD8 ABC-DLBCL cells; assay: Human IL6 Mesoscale assay (TMD-8); assay type: cell-based; conditions: Homo sapiens, TMD8; TMD-8 cells, 24 h
Description: as §1, §2, §3

[3] = molecular target: full-length MALT1 protein (Strep-MALT1(1-824)-His) (Homo sapiens (Human), UniProt Q9UDY8); assay: MALT1 Biochemical Protease Assay (Ac-LRSR-AMC substrate); conditions: 10 nM FL MALT1, 200 μM Ac-LRSR-AMC, 4 h at RT; read-out: MALT1_Biochemical activity (Ac-LRSR-amc) IC50
Chain of full-length MALT1 protein (Strep-MALT1(1-824)-His) (Q9UDY8 whole entry): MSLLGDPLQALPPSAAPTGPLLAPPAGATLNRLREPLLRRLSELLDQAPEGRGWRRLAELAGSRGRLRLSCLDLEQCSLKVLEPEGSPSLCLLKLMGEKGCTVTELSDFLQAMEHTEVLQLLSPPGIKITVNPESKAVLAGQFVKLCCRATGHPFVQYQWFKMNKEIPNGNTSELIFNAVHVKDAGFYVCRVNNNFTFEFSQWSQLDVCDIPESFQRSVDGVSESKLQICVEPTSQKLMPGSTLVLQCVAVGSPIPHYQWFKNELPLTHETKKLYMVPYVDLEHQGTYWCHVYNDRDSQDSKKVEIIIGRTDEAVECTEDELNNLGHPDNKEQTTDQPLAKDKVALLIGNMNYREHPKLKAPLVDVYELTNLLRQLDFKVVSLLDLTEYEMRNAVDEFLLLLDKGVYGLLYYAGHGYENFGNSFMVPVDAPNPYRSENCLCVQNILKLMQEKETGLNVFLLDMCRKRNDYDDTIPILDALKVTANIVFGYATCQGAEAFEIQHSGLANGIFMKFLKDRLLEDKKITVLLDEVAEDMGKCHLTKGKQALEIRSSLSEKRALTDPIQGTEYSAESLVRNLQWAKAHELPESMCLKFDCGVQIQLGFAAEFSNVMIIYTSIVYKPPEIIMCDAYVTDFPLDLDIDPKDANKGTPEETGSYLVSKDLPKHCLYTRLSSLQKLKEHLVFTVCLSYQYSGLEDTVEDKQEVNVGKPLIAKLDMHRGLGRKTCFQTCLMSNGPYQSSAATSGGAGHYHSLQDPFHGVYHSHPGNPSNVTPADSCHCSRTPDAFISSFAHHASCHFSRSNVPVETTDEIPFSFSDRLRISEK
Description: The tetrapeptide LRSR is coupled to AMC (7-amino-4-methylcoumarin) and provides a quenched, fluorescent substrate for the MALT1 protease (SM Biochemicals). […] Test compound concentrations ranged from 30 μM to 0.5 nM using 11 dilution steps (1:3). Background signal was measured from control wells containing assay buffer without enzyme which functions as low control (LC). High control (HC) values were generated using the reaction with enzyme but no compound treatment. Compounds were pre-incubated with MALT1 enzyme for 50 minutes at RT. […] The reaction was subsequently incubated for 4 h at RT and fluorescence was measured.
LC=Median of the low control values
An estimate of the slope of the plot in terms of the Hill coefficient was also obtained. IC50 Calculation:
[formula] With • UB=upper bound • LB=lower bound Used in “Lexis Dose Response Curve Fitting” Version 1.0.

Row | IC50 [1] [µM] | IC50 [2] [µM] | IC50 [3] [µM] | Compound
1 | 0.054 | 0.126 | 2 | NC(=O)c1ccc2c(-n3ncc(C(=O)Nc4cnc(-n5nccn5)c(Cl)c4)c3C(F)(F)F)cccc2n1 [Cpd 388, 5-(4-((5-chloro-6-(2H-1,2,3-triazol-2-yl)pyridin-3-yl)carbamoyl)-5-(trifluoromethyl)-1H-pyrazol-1-yl)quinoline-2-carboxamide]
2 | 0.028 | 0.072 | 3.47 | O=C(Nc1cnc(-n2nccn2)c(Cl)c1)c1cnn(-c2cccc3nc(C(F)F)ccc23)c1C(F)(F)F [Cpd 395, N-(5-chloro-6-(2H-1,2,3-triazol-2-yl)pyridin-3-yl)-1-(2-(difluoromethyl)quinolin-5-yl)-5-(trifluoromethyl)-1H-pyrazole-4-carboxamide]
3 | 0.148 | 0.148 | 0.331 | COC(=O)c1cn(-c2ncc(NC(=O)c3cnn(-c4cccc5ncccc45)c3C(F)(F)F)cc2Cl)nn1 [Cpd 249, methyl 1-(3-chloro-5-(1-(quinolin-5-yl)-5-(trifluoromethyl)-1H-pyrazole-4-carboxamido)pyridin-2-yl)-1H-1,2,3-triazole-4-carboxylate]
4 | > 15 | > 15 | 0.204 | O=C(Nc1cnc(-c2ncc[nH]2)c(Cl)c1)c1cnn(-c2cncc3ccccc23)c1C(F)(F)F [Cpd 104, N-(5-chloro-6-(1H-imidazol-2-yl)pyridin-3-yl)-1-(isoquinolin-4-yl)-5-(trifluoromethyl)-1H-pyrazole-4-carboxamide]
5 | 0.046 | 0.058 | 0.186 | NC(=O)c1nccc2c(-n3ncc(C(=O)Nc4cnc(-n5nccn5)c(Cl)c4)c3C(F)(F)F)cccc12 [Cpd 389, 5-(4-((5-chloro-6-(2H-1,2,3-triazol-2-yl)pyridin-3-yl)carbamoyl)-5-(trifluoromethyl)-1H-pyrazol-1-yl)isoquinoline-1-carboxamide]
6 | 0.05 | 0.046 | 0.013 | C[C@H](O)c1ncc(-n2ncc(C(=O)Nc3cnc(-n4nccn4)c(Cl)c3)c2C(F)(F)F)c2ccccc12 (single isomer, unassigned) [Cpd 443, (*S)—N-(5-chloro-6-(2H-1,2,3-triazol-2-yl)pyridin-3-yl)-1-(1-(1-hydroxyethyl)isoquinolin-4-yl)-5-(trifluoromethyl)-1H-pyrazole-4-carboxamide]
7 | > 15.1 | > 15.1 | 0.282 | Cc1cc(NC(=O)c2cnn(-c3cccc4c(=O)[nH]ccc34)c2C(F)(F)F)c(C)nc1-n1nccn1 [Cpd 161, N-(2,5-dimethyl-6-(2H-1,2,3-triazol-2-yl)pyridin-3-yl)-1-(1-oxo-1,2-dihydroisoquinolin-5-yl)-5-(trifluoromethyl)-1H-pyrazole-4-carboxamide]
8 | 0.06 | 0.091 | 0.013 | Cc1nc(-n2nccn2)c(Cl)cc1NC(=O)c1cnn(-c2cnc(Cl)c3sccc23)c1C(F)(F)F [Cpd 426, N-(5-chloro-2-methyl-6-(2H-1,2,3-triazol-2-yl)pyridin-3-yl)-1-(7-chlorothieno[2,3-c]pyridin-4-yl)-5-(trifluoromethyl)-1H-pyrazole-4-carboxamide]
9 | 0.182 | 0.389 | 0.447 | CC(=O)c1nccc2c(-n3ncc(C(=O)Nc4cnc(-n5nccn5)c(Cl)c4)c3C(F)(F)F)cccc12 [Cpd 378, 1-(1-acetylisoquinolin-5-yl)-N-(5-chloro-6-(2H-1,2,3-triazol-2-yl)pyridin-3-yl)-5-(trifluoromethyl)-1H-pyrazole-4-carboxamide]
10 | 0.468 | 1.51 | 0.331 | NCc1cnnn1-c1ncc(NC(=O)c2cnn(-c3cccc4ncccc34)c2C(F)(F)F)cc1Cl [Cpd 248, N-(6-(5-(aminomethyl)-1H-1,2,3-triazol-1-yl)-5-chloropyridin-3-yl)-1-(quinolin-5-yl)-5-(trifluoromethyl)-1H-pyrazole-4-carboxamide]
11 | 1.91 | > 15.1 | 0.195 | O=C(Nc1cnc(-n2nccn2)c(Cl)c1)c1cnn(-c2c(F)ccc3nccn23)c1C(F)(F)F [Cpd 205, N-(5-chloro-6-(2H-1,2,3-triazol-2-yl)pyridin-3-yl)-1-(6-fluoroimidazo[1,2-a]pyridin-5-yl)-5-(trifluoromethyl)-1H-pyrazole-4-carboxamide]
12 | 0.049 | 0.052 | 0.316 | O=C(Nc1cnc(-n2nccn2)c(Cl)c1)c1cnn(-c2cncc3sc(C(F)F)cc23)c1C(F)(F)F [Cpd 399, N-(5-chloro-6-(2H-1,2,3-triazol-2-yl)pyridin-3-yl)-1-(2-(difluoromethyl)thieno[2,3-c]pyridin-4-yl)-5-(trifluoromethyl)-1H-pyrazole-4-carboxamide]
13 | 0.126 | 0.245 | 0.012 | Cc1nc(-n2nccn2)c(Cl)cc1NC(=O)c1cnn(-c2cnc(C(N)=O)c3sccc23)c1C(F)(F)F [Cpd 393, 4-(4-((5-chloro-2-methyl-6-(2H-1,2,3-triazol-2-yl)pyridin-3-yl)carbamoyl)-5-(trifluoromethyl)-1H-pyrazol-1-yl)thieno[2,3-c]pyridine-7-carboxamide]
14 | 0.141 | 0.708 | 0.389 | Cc1nc2c(-n3ncc(C(=O)Nc4cnc(-n5nccn5)c(C#N)c4)c3C(F)(F)F)cccc2s1 [Cpd 245, N-(5-cyano-6-(2H-1,2,3-triazol-2-yl)pyridin-3-yl)-1-(2-methylbenzo[d]thiazol-4-yl)-5-(trifluoromethyl)-1H-pyrazole-4-carboxamide]
15 | 0.06 | 0.091 | 0.071 | Cc1cc(-n2nccn2)c(Cl)cc1NC(=O)c1cnn(-c2cccc3c(=O)[nH]ccc23)c1C(F)(F)F [Cpd 171, N-(5-chloro-2-methyl-4-(2H-1,2,3-triazol-2-yl)phenyl)-1-(1-oxo-1,2-dihydroisoquinolin-5-yl)-5-(trifluoromethyl)-1H-pyrazole-4-carboxamide]
16 | 0.2 | 0.224 | 0.214 | Cc1cc2nccc(-n3ncc(C(=O)Nc4cnc(-n5nccn5)c(C#N)c4)c3C(F)(F)F)c2o1 [Cpd 151, N-(5-cyano-6-(2H-1,2,3-triazol-2-yl)pyridin-3-yl)-1-(2-methylfuro[3,2-b]pyridin-7-yl)-5-(trifluoromethyl)-1H-pyrazole-4-carboxamide]
17 | 0.186 | 0.11 | 0.042 | N#Cc1cc(NC(=O)c2cnn(-c3nncc4ccccc34)c2C(F)(F)F)cnc1-n1nccn1 [Cpd 102, N-(5-cyano-6-(2H-1,2,3-triazol-2-yl)pyridin-3-yl)-1-(phthalazin-1-yl)-5-(trifluoromethyl)-1H-pyrazole-4-carboxamide]
18 | 3.89 | 6.17 | 1.74 | Cc1cn2c(-n3ncc(C(=O)Nc4ccnc(C(F)(F)F)c4)c3C(F)(F)F)cccc2n1 [Cpd 206, 1-(2-methylimidazo[1,2-a]pyridin-5-yl)-5-(trifluoromethyl)-N-(2-(trifluoromethyl)pyridin-4-yl)-1H-pyrazole-4-carboxamide]
19 | 0.501 | 0.447 | 0.06 | N#Cc1cc(NC(=O)c2cnn(-c3cnnc4ccccc34)c2C(F)(F)F)cnc1-n1nccn1 [Cpd 93, 1-(Cinnolin-4-yl)-N-(5-cyano-6-(2H-1,2,3-triazol-2-yl)pyridin-3-yl)-5-(trifluoromethyl)-1H-pyrazole-4-carboxamide]
20 | 0.468 | 0.851 | 2.14 | N#Cc1cc(NC(=O)c2cnn(-c3cc(Cl)nc4ccccc34)c2C(F)(F)F)cnc1-n1nccn1 [Cpd 220, 1-(2-chloroquinolin-4-yl)-N-(5-cyano-6-(2H-1,2,3-triazol-2-yl)pyridin-3-yl)-5-(trifluoromethyl)-1H-pyrazole-4-carboxamide]
